Patent publication US4225611A, “Novel n-substituted benzenesulfonamide, process for its preparation and medicaments containing it” (Choay S.A., priority 1977, dated 1980)

Assays:
[1] = acute toxicity in the rat, by the oral route; settings: in vivo, single dose
Source text: The acute toxicity is expressed by the lethal dose 50, that is to say the dose resulting in the death of 50% of the animals.
This study has been carried out on groups of 10 Swiss male mice whose weight varied from 24 to 26 g, and on groups of six Wistar male rats of 120 to 125 g.
The administration was made in a single dose by the oral route in the rats and the mice, and also by the intravenous route in the case of the mice.

stress ulcer = test: anti-ulcer activity: stress ulcer (total immobilization); assay type: in vivo, rat; settings: 50 mg/kg oral, 1 hour before 18 hours immobilization; versus controls
Method: (§1) The compound according to the invention was studied for its preventive properties with respect to ulcers generated by various means. Thus the ratio in the reduction of gastric attacks caused by acetyl salicylic acid and phenylbutazone was determined, as well as the ratio in the reduction of stress ulcers and SHAY ulcers, or again vasomotor reactions to polymyxine B.
(§2) For these tests, male Wistar rats were used (from 250 to 350 g according to the test). For each test and each dose, 10 animals at least were treated.
For the stress ulcer, the rats, 1 hour after having received 50 mg/kg of the product according to the invention by the oral route, were totally immobilized for 18 hours in a cylindrical wire cage, according to the technique of ROSSI (C.R. Soc. Biol., 1956, 150, 2124-2126) and BONFILS (C.R. Soc. Biol., 1957, 151, 1149-1150). They were then sacrificed and examined.
(§3) In all the preceding tests, the results were obtained by examination of the gastric mucous membrane to determine the presence either of a congested area, or of more or less serious ulcerations.
(§4) Study of the levels of reduction of attacks in the treated animals, with respect to the controls, was effected by the method of O. FOUSSARD and G. […] (Therapie, 1972, 27, 705-721) applying the formula of J. M. LWOFF (J. Pharmacol., 1971, 2, 1, 81-83).

phenylbutazone ulcer = test: anti-ulcer activity: phenylbutazone ulcer; assay type: in vivo, rat; settings: 50 mg/kg oral, 1 hour before 100 mg/kg phenylbutazone intraperitoneal; sacrifice 24 hours later; versus controls
Method: as §1, §2
(§5) In the case of acetyl salicylic acid (AAS) and of phenylbutazone, the test procedure was as follows:
(§6) administration by the oral route of 50 mg/kg of the compound in aqueous solution with 3% of gum arabic after 23 hours fasting;
(§7) initiation of ulcerogenesis 1 hour later, by the administration of 50 mg/kg of AAS by the oral route or of 100 mg/kg of phenylbutazone by the intraperitoneal route;
(§8) sacrifice of the animals 24 hours later and examination of the gastric mucous membrane.
(§9) The control animals only received AAS or phenylbutazone.
as §3
(§10) Study of the levels of reduction of attacks in the treated animals, with respect to the controls, was effected by the method of O. FOUSSARD and G. […]

[2] = test system: vasomotor lesions and hemorhagia of the glandular portion of the stomach; test: anti-ulcerogenic action against polymyxine B vasomotor lesions; assay type: in vivo, rat; settings: 100 mg/kg oral before 1.5 mg/kg polymyxine B intraperitoneal; sacrifice two hours later; 15 rats versus 15 controls
Method: as §1, §2
In the tests with polymyxine B, 100 mg/kg of the compound according to the invention was administered by the oral route before the intraperitoneal injection of 1.5 mg/kg of polymyxine B, then, two hours later after this last injection, the rats were sacrificed. The injection of polymyxine B has the effect of causing vasomotor lesions and hemorhagia of the glandular portion of the stomach. It is by measurement of the extent of these lesions that the anti-ulcerogenic action of the compound was determined (A. BELL and Coll., Biologie et gastro-enterologie, 1969, 2, 117-126-Suppt. No. 2 aux Archives francaises des maladies de l'appareil digestif, 1969, 58, 10-11, October-November).

SHAY ulcer = test: anti-ulcer activity: SHAY ulcer (ligature of the pylorus); assay type: in vivo, rat; settings: 100 mg/kg oral, 1 hour before ligature of the pylorus, versus controls
Method: as §1, §2
The SHAY ulcer was produced in the fasting rat after 48 hours. 47 hours after the beginning of the fast, by the oral route, 100 mg/kg of the product to be tested was administered, then, 1 hour later, ligature of the pylorus was effected after light anesthesia with ether. The sacrifice of the animals took place 12 to 24 hours after the ligature.
as §3, §4

[3] = test system: acetyl salicylic acid ulcer; test: anti-ulcer activity: acetyl salicylic acid ulcer; assay type: in vivo, rat; settings: 50 mg/kg oral, 1 hour before 50 mg/kg AAS oral; sacrifice 24 hours later; versus controls
Method: as §1, §2, §5, §6, §7, §8, §9, §3, §10

CCN1CCCC1CNS(=O)(=O)c1cc(Cl)c(N)cc1OC (stereo not shown) [(I), chloro-5 methoxy-2 amino-4 N-(N-ethyl methyl-2 pyrrolidino) benzenesulfonamide]
LD50 [1]: 1500 mg/kg
level of reduction of attacks, stress ulcer (stress ulcer): 50.8%
level of reduction of attacks, phenylbutazone ulcer (phenylbutazone ulcer): 46.9%
reduction in the lesions (polymyxine B) [2]: ~63%
level of reduction of attacks, SHAY ulcer, after 12 hours of ligature (SHAY ulcer; 12 hours of ligature): 60.4%
level of reduction of attacks, SHAY ulcer, after 24 hours of ligature (SHAY ulcer; 24 hours of ligature): 46.1%
level of reduction of attacks, acetyl salicylic acid ulcer [3]: 40.0%
